# According to ChEMBL document CHEMBL1134171, “Synthesis and biological activity of novel potent endothelin-converting enzyme-1 inhibitors” (Bioorg Med Chem Lett, 2001):
# Legend:
# [1] = target: T1, Endothelin-converting enzyme 1 (Homo sapiens, UniProt P42892); assay: In vitro inhibitory activity was tested against Endothelin converting enzyme 1
# T1 sequence (P42892 whole entry): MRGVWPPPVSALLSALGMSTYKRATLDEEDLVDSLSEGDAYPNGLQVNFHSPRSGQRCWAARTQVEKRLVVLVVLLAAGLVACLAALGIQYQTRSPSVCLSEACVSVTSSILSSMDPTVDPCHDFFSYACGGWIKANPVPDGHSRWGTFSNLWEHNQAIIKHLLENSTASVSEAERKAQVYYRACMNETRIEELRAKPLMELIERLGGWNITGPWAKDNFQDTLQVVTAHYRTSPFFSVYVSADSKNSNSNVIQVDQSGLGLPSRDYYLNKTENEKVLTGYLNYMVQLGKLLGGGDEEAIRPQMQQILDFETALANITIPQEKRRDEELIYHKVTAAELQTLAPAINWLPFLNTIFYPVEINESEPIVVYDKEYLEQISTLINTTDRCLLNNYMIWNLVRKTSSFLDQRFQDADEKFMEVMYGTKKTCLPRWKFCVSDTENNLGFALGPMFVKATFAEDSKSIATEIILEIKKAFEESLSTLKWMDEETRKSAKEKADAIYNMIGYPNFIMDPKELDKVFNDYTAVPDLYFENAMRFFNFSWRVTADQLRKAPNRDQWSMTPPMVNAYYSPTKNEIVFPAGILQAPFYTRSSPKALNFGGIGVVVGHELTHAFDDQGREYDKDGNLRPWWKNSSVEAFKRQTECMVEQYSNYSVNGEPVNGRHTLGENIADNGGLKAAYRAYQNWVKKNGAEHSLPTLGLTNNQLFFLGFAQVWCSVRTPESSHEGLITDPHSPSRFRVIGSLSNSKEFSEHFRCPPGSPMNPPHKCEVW
# [2] = target: T2, Endothelin-converting enzyme 1 (Homo sapiens) (UniProt P42892); assay: In vitro inhibitory activity was tested against Endothelin converting enzyme 1 at a concentration of 1 uM
# T2 sequence (whole entry): T1 sequence (P42892 whole entry)
Compound,IC50 [1],inhibition [2]
COc1ccc(-c2ccc(C[C@H](NC(=O)C3(NC(=O)[C@@H](S)C(C)C)CCCC3)C(=O)O)cc2)cc1,–,49%
CC(C)[C@H](S)C(=O)NC1(C(=O)NC(Cc2ccc(-c3ccccn3)cc2)C(=O)O)CCCC1 (stereo partly drawn),220 nM,–
CC(C)[C@H](S)C(=O)NC1(C(=O)N[C@H](Cc2ccc(-c3ccccc3)cc2)C(=O)O)CCCC1,–,18%
COc1cc(OC)cc(-c2ccc(CC(NC(=O)C3(NC(=O)[C@@H](S)C(C)C)CCCC3)C(=O)O)cc2)c1 (stereo partly drawn),990 nM,–
CC(C)[C@H](S)C(=O)NC1(C(=O)N[C@@H](Cc2ccc(-c3ccc(C(F)(F)F)cc3)cc2)C(=O)O)CCCC1,–,54%
CC(C)[C@H](S)C(=O)NC1(C(=O)NC(Cc2ccc(-c3cncnc3)cc2)C(=O)O)CCCC1 (stereo partly drawn),120 nM,–
CC(C)[C@H](S)C(=O)NC1(C(=O)NC(Cc2ccc(-c3cccnc3)cc2)C(=O)O)CCCC1 (stereo partly drawn),150 nM,–

# The remaining lines, values ahead:
IC50 [1],inhibition [2],Compound
350 nM,–,COc1cccc(-c2ccc(CC(NC(=O)C3(NC(=O)[C@@H](S)C(C)C)CCCC3)C(=O)O)cc2)c1OC (stereo partly drawn)
–,26%,CC(C)[C@H](S)C(=O)NC1(C(=O)N[C@@H](Cc2ccccc2)C(=O)O)CCCC1
–,0%,CC(C)[C@H](S)C(=O)NC1(C(=O)N[C@@H](Cc2ccccc2-c2ccccc2)C(=O)O)CCCC1
–,22%,CC(C)[C@H](S)C(=O)NC1(C(=O)NC(Cc2ccc(-c3ccncc3)cc2)C(=O)O)CCCC1 (stereo partly drawn)
–,39%,CC(C)[C@H](S)C(=O)NC1(C(=O)N[C@@H](Cc2cccc(-c3ccccc3)c2)C(=O)O)CCCC1
–,77%,CC(C)[C@H](S)C(=O)NC1(C(=O)N[C@@H](Cc2ccc(-c3ccccc3)cc2)C(=O)O)CCCC1
